Results taken from publication PMC11233931, “Remodeling tumor‐associated macrophage for anti‐cancer effects by rational design of irreversible inhibition of mitogen‐activated protein kinase‐activated protein kinase 2” (MedComm, 2024).

Tests used:
Test in all cases: Eurofins kinase selectivity profile against 380 other human recombinant kinases (Table S2)
Type in all cases: biochemical
[1] = target: T1, 380 human recombinant protein kinases (Homo sapiens, UniProt P51812); details: Rsk2(h), read-out: Inhibition rate (%)
T1 construct: purchased Eurofins (Celle Lévescault)
In short: (§1)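 Profiling against 380 human recombinant kinases carried out by Eurofins at various compound concentrations.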

[2] = target: T2, 380 human recombinant protein kinases (Homo sapiens, UniProt Q15746); details: MLCK(h), read-out: Inhibition rate
T2 construct: purchased Eurofins (Celle Lévescault)
In short: as §1

[3] = target: T3, 380 human recombinant protein kinases (Homo sapiens, UniProt Q16832); details: DDR2(h), read-out: Inhibition rate
T3 construct: purchased Eurofins (Celle Lévescault)
T3 sequence (Q16832 22-855): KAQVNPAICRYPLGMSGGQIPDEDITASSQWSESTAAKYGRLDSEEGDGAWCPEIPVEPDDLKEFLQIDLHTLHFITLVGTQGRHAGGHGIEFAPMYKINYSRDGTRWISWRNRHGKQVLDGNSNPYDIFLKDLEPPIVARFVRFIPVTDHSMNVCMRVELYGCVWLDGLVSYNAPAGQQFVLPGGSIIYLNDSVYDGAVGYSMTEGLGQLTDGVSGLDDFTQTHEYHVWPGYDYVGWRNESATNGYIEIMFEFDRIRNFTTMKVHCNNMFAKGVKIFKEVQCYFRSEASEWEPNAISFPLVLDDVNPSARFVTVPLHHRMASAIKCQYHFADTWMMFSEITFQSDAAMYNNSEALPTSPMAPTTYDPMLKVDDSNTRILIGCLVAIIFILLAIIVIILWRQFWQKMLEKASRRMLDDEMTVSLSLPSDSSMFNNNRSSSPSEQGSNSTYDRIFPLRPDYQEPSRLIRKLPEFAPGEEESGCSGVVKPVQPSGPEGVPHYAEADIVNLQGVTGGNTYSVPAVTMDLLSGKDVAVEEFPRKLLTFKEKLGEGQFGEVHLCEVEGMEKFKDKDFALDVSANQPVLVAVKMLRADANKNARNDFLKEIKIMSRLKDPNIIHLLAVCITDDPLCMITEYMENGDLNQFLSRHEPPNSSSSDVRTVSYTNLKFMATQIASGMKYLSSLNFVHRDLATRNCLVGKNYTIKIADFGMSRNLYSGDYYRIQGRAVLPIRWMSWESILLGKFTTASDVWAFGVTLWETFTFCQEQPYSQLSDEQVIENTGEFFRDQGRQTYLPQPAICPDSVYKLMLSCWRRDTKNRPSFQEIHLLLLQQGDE
In short: as §1

[4] = target: T4, 380 human recombinant protein kinases (Homo sapiens, UniProt P48426); details: PIP4K2α(h), read-out: Inhibition rate (%)
T4 construct: purchased Eurofins (Celle Lévescault)
T4 sequence (P48426 1-406): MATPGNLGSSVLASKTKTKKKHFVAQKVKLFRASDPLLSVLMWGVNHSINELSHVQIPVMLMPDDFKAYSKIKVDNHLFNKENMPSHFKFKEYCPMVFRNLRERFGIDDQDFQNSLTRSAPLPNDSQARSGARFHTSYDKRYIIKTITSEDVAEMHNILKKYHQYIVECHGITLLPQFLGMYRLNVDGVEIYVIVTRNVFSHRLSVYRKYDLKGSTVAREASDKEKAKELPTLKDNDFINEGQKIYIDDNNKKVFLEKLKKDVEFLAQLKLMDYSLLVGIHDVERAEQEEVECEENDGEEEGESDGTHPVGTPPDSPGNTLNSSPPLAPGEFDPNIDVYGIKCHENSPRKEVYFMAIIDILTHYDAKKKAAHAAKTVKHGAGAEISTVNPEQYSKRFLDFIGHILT
In short: as §1

[5] = target: T5, 380 human recombinant protein kinases (Homo sapiens, UniProt P22694); details: PKAcβ(h), read-out: Inhibition rate
T5 construct: purchased Eurofins (Celle Lévescault)
In short: as §1

[6] = target: T6, 380 human recombinant protein kinases (Homo sapiens, UniProt Q00534); details: CDK6/cyclinD3(h), read-out: Inhibition rate
T6 construct: purchased Eurofins (Celle Lévescault)
In short: as §1

[7] = target: T7, 380 human recombinant protein kinases (Homo sapiens, UniProt O00141); details: SGK(h), read-out: Inhibition rate (%)
T7 construct: purchased Eurofins (Celle Lévescault)
T7 sequence (O00141 1-431): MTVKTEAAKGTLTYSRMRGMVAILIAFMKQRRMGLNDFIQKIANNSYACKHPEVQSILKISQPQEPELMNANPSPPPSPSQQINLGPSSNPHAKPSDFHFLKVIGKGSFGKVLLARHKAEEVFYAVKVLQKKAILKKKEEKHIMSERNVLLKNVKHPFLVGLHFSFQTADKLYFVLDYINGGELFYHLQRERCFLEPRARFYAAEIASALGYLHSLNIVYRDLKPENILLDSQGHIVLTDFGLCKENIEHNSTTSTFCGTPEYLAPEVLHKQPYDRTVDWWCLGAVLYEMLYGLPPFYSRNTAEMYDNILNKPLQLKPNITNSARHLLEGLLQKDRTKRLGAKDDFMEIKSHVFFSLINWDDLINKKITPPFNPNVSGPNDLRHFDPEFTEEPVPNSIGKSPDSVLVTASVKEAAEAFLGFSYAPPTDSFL
In short: as §1

T6 sequence (Q00534 whole entry): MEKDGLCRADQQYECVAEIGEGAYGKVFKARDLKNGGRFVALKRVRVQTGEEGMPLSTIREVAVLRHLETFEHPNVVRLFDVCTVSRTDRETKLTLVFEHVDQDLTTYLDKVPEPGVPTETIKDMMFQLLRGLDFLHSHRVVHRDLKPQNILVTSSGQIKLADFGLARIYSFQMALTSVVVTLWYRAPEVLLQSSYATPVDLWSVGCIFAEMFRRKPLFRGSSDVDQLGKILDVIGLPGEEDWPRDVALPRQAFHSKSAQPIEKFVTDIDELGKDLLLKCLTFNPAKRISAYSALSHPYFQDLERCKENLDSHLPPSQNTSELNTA
T1 sequence (P51812 whole entry): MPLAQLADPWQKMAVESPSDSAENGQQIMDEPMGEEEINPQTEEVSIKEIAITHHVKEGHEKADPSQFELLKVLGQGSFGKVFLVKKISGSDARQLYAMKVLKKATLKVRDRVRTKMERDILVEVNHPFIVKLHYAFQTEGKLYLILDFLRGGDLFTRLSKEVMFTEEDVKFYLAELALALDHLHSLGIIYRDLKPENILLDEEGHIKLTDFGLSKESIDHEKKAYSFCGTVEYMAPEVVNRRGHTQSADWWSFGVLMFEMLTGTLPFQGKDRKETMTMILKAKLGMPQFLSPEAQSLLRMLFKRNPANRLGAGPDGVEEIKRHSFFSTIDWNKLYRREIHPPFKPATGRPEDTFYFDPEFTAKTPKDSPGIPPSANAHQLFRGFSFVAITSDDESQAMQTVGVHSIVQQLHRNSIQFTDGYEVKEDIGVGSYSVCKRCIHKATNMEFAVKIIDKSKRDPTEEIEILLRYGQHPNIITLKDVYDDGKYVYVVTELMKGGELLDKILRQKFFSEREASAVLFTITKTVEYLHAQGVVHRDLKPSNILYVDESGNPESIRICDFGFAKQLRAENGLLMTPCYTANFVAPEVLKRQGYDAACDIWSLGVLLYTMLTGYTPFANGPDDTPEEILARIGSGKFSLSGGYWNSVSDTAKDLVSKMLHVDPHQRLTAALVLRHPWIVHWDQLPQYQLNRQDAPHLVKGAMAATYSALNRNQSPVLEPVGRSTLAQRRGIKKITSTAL
T2 sequence (Q15746 whole entry): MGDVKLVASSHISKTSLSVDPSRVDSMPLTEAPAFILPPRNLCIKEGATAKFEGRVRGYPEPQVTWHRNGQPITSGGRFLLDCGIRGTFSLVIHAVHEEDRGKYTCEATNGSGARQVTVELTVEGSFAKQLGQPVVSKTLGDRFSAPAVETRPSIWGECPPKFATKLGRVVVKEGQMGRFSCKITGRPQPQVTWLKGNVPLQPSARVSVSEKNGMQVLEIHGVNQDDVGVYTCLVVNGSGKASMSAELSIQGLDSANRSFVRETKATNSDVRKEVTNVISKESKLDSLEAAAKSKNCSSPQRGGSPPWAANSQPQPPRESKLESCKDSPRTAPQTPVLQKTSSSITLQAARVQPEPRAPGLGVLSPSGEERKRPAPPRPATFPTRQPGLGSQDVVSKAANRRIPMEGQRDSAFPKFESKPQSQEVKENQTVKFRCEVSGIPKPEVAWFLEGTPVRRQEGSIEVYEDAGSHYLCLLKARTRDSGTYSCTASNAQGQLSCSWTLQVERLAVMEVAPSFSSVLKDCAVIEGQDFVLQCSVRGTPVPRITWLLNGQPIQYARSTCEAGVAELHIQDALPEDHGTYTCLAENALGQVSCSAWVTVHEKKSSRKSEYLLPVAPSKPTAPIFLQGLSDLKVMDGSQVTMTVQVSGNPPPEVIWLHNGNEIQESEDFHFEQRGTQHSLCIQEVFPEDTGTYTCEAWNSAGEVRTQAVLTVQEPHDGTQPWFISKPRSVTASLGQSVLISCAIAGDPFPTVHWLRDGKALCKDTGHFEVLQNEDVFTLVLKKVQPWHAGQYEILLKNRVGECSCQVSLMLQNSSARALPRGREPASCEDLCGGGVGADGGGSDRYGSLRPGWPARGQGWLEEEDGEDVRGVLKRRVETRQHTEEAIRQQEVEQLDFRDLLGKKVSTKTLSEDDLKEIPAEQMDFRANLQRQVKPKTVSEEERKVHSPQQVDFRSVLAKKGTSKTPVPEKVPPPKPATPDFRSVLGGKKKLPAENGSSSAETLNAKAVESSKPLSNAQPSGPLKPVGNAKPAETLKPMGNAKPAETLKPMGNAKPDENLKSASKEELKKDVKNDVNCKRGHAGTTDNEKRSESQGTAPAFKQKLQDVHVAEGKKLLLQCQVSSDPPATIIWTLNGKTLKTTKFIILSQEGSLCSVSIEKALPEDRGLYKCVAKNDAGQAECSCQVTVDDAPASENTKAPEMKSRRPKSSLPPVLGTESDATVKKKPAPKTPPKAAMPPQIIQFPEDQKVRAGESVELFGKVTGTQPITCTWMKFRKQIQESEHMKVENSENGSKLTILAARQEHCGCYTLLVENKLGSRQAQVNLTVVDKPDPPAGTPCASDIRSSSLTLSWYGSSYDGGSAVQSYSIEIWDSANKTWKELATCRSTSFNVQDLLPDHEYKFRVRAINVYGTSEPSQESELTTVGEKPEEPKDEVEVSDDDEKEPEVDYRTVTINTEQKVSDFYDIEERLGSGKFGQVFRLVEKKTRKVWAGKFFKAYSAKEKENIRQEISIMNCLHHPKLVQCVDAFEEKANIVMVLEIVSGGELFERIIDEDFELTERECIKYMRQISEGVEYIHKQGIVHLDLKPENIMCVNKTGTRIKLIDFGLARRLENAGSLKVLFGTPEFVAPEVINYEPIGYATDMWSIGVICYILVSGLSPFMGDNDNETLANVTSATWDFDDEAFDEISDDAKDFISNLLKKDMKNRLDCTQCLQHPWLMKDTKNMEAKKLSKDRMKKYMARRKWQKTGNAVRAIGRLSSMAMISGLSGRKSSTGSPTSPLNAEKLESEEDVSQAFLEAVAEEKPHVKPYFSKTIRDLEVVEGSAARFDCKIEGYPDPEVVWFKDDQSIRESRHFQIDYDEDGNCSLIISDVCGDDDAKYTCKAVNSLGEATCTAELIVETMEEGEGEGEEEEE

Work on `C=CC(=O)Nc1cc(-c2cc(-c3cc4c([nH]3)CCNC4=O)ccn2)ccc1OC(F)(F)F` [compound 11] yielded an inhibition at 0.01 µM ([1]; 10 nM) of -6%, an inhibition at 0.1 µM ([1]; 100 nM) of -11% and an inhibition at 1 µM ([1]; 1000 nM) of -3%. For the same molecule, the inhibition at 0.01 µM ([2]; 10 nM) was -10%, the inhibition at 0.1 µM ([2]; 100 nM) was 0% and the inhibition at 1 µM ([2]; 1000 nM) was 34%. It also gave an inhibition at 0.01 µM ([3]; 10 nM) of -7%, an inhibition at 0.1 µM ([3]; 100 nM) of -10% and an inhibition at 1 µM ([3]; 1000 nM) of -10%. The inhibition at 0.01 µM ([4]; 10 nM) was -1%, the inhibition at 0.1 µM ([4]; 100 nM) was -3% and the inhibition at 1 µM ([4]; 1000 nM) was -1%. It also gave an inhibition at 0.01 µM ([5]; 10 nM) of -11%, an inhibition at 0.1 µM ([5]; 100 nM) of -4% and an inhibition at 1 µM ([5]; 1000 nM) of 5%. For the same molecule, the inhibition at 0.01 µM ([6]; 10 nM) was 2%, the inhibition at 0.1 µM ([6]; 100 nM) was 6% and the inhibition at 1 µM ([6]; 1000 nM) was -3%. It also gave an inhibition at 0.01 µM ([7]; 10 nM) of 0%, an inhibition at 0.1 µM ([7]; 100 nM) of 7% and an inhibition at 1 µM ([7]; 1000 nM) of 1%.
